Results on 23 compounds are retold here after patent US11932600B2, “Biaryl derivative” (DAIICHI SANKYO COMPANY, LIMITED, priority 2018, dated 2024).

For the first assay, the system named is plasma ALP (80-90% containing TNAP). Briefly: Inhibitory test of plasma TNAP activity in B6 mouse. Type of assay: in vivo. As to conditions: 0.3 mg/kg orally in 0.5% methylcellulose, average inhibition from 0 hour to 6 hours after administration, activity before administration = 100%. Here is the method: (Test Example 3) Inhibitory Test of Plasma TNAP Activity in B6 Mouse (Charles River Laboratories Japan, Inc.)
After blood sampling from the tail vein using a heparin-treated hematocrit capillary tube (EM Meister Hematocrit Capillary Tube, AS ONE Corp.) (as the sample before compound administration), each test compound suspended in a 0.5% methylcellulose solution (powder purchased from Wako Pure Chemical Industries, Ltd. was adjusted to 0.5% with Otsuka distilled water) was administered orally to the mouse (0.3 mg/kg). 1, 2, 4, 6, and 24 hours after the administration, blood was collected from the tail vein using a heparin-treated hematocrit capillary tube to obtain a plasma sample. The plasma sample was added to an assay buffer (1 M Tris, 1 M MgCl2, 20 mM ZnCl2, and water, pH 7.5), and the mixture was left standing for 5 minutes. Then, the absorbance at 405 nm was measured and used as a blank. The substrate pNPP was added to the plasma sample and incubated at room temperature for 180 minutes. Then, the absorbance (ABS: 405 nm) was measured using a microplate reader (model plus 384, Molecular Devices, LLC), and the concentration of produced p-nitrophenol was calculated. The blank was subtracted from all measurement values to calculate TNAP activity at each time point with the TNAP activity of the sample before compound administration defined as 100%.
It was calculated according to the following expression: 100−((plasma ALP activity at 0 hr+plasma ALP activity at 1 hr)*1/2+(plasma ALP activity at 1 hr+plasma ALP activity at 2 hr)*1/2+(plasma ALP activity at 2 hr+plasma ALP activity at 4 hr)*2/2+(plasma ALP activity at 4 hr+plasma ALP activity at 6 hr)*2/2)/6.
In the case of `Cc1cncc(S(=O)(=O)Nc2c(F)cc(Cl)cc2-c2ccc(OC(C)(C)C(=O)O)cc2)c1` [Example 3, 2-({5′-Chloro-3′-fluoro-2′-[(5-methylpyridine-3-sulfonyl)amino][1,1′-biphenyl]-4-yl}oxy)-2-methylpropanoic acid], the “Plasma ALP Inhibition (6 h ave. inhibition %)” value is listed as 70.5%. Still for that read-out and setting: the result for `Cc1cncc(S(=O)(=O)Nc2c(F)cc(Cl)cc2-c2ccc(CC(=O)O)cc2)c1C` [Example 12, {5′-Chloro-2′-[(4,5-dimethylpyridine-3-sulfonyl)amino]-3′-fluoro[1,1′-biphenyl]-4-yl}acetic acid] reads 82.2%. Same read-out and setting: the figure for `Cc1cncc(S(=O)(=O)Nc2c(F)cc(Cl)cc2-c2ccc(CCC(=O)O)cc2)c1` [Example 4, 3-{5′-Chloro-3′-fluoro-2′-[(5-methylpyridine-3-sulfonyl)amino][1,1′-biphenyl]-4-yl}propanoic acid] is 80.2%.

In a further assay the target is T1, human TNAP (Homo sapiens, UniProt P05186).
T1 construct: host or cells: COS1 cells, concentrated and dialyzed culture supernatant
T1 sequence (P05186 18-502 limits assumed): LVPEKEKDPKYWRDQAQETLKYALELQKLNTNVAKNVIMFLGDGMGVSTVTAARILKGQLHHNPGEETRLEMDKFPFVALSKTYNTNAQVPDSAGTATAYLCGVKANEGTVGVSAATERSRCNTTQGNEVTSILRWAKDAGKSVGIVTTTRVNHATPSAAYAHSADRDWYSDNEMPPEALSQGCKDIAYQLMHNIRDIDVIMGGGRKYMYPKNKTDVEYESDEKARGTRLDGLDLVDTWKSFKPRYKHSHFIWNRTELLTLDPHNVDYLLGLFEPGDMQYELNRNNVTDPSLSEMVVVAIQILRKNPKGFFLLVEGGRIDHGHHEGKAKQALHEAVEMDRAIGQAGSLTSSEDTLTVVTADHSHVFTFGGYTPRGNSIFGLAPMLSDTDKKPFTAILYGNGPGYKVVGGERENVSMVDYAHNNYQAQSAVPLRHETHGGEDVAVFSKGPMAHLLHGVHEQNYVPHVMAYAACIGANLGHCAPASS
Briefly: Inhibitory test of TNAP activity (pNPP substrate, p-nitrophenol production). Type of assay: biochemical. As to conditions: human TNAP from culture supernatant of transfected COS1 cells, 60 minutes at room temperature, ABS 405 nm. As for the experimental part: <Test Examples> (Test Example 1) Inhibitory Test of TNAP Activity
COS1 cells (DS Pharma Biomedical Co., Ltd.) were transfected with human TNAP (OriGene Technologies, Inc.) using Lipofectamine LTX & Plus reagent (Invitrogen Corp.). On the next day, the medium was replaced with a fresh medium, and the cells were cultured in an incubator for 3 days. After 3 days, the culture supernatant was collected and concentrated by centrifugation at 5000 G for 30 minutes using Amicon 14, 10^4 cut (Merck Millipore). The concentrated culture supernatant was dialyzed against 5 L of 50 mM Tris/200 mM NaCl/1 mM MgCl2/20 μM ZnCl2 twice and used as an enzyme source (enzyme solution). The substrate pNPP (ProteoChem Inc.) was adjusted to 3.1 mM with Milli-Q water, and a solution of each test compound dissolved in dimethyl sulfoxide (DMSO; Wako Pure Chemical Industries, Ltd.) by 6 serial dilutions at a 5-fold common ratio from 100 μM or DMSO was added thereto at a final concentration of 1% by volume. The enzyme solution adjusted to 2 μg/mL with an assay buffer (200 mM Tris/2 mM MgCl2/0.04 mM ZnCl2/0.01% Tween 20) was added in the same amount of the substrate solution and incubated at room temperature for 60 minutes. Then, the absorbance (ABS: 405 nm) was measured using a microplate reader (model plus 384, Molecular Devices, LLC), and the concentration of produced p-nitrophenol was calculated.
For orientation: IC50 means the midpoint of a concentration-inhibition curve. A higher IC50 goes with weaker potency. For the compound `COc1ccncc1S(=O)(=O)Nc1c(F)cc(Cl)cc1-c1ccc(OC(C)(C)C(=O)O)cc1` [Example 25, 2-({5′-Chloro-3′-fluoro-2′-[(4-methoxypyridine-3-sulfonyl)amino][1,1′-biphenyl]-4-yl}oxy)-2-methylpropanoic acid], the midpoint of inhibition, the IC50, lay at 0.41 nM. For the compound `Cc1cncc(S(=O)(=O)Nc2c(F)cc(Cl)cc2-c2ccc(OC(C)(C)C(=O)O)c(F)c2)c1` [Example 27, 2-({5′-Chloro-3,3′-difluoro-2′-[(5-methylpyridine-3-sulfonyl)amino][1,1′-biphenyl]-4-yl}oxy)-2-methylpropanoic acid], the IC50 was 0.68 nM. Against the preceding compound, the IC50 is about 1.7-fold higher. Turning to `CC(C)Oc1cncc(S(=O)(=O)Nc2c(F)cc(Cl)cc2-c2ccc(OC(C)(C)C(=O)O)cc2)c1` [Example 26, 2-{[5′-Chloro-3′-fluoro-2′-({5-[(propan-2-yl)oxy]pyridine-3-sulfonyl}amino)[1,1′-biphenyl]-4-yl]oxy}-2-methylpropanoic acid], the IC50 is 0.19 nM. Still for that read-out and setting: the result for `Cc1cncc(S(=O)(=O)Nc2c(F)cc(Cl)cc2-c2ccc(OC(C)(C)C(=O)O)cc2)c1` [Example 3, 2-({5′-Chloro-3′-fluoro-2′-[(5-methylpyridine-3-sulfonyl)amino][1,1′-biphenyl]-4-yl}oxy)-2-methylpropanoic acid] reads 0.24 nM; that for `Cc1ncncc1S(=O)(=O)Nc1c(F)cc(Cl)cc1-c1ccc(OC(C)(C)C(=O)O)cc1` [Example 23, 2-({5′-Chloro-3′-fluoro-2′-[(4-methylpyrimidine-5-sulfonyl)amino][1,1′-biphenyl]-4-yl}oxy)-2-methylpropanoic acid], 2.4 nM; that for `Cc1cncc(S(=O)(=O)Nc2c(F)cc(Cl)cc2-c2ccc(OCC(=O)O)cc2)c1` [Example 17, ({5′-Chloro-3′-fluoro-2′-[(5-methylpyridine-3-sulfonyl)amino][1,1′-biphenyl]-4-yl}oxy)acetic acid], 0.3 nM.

`CC(C)(Oc1ccc(-c2cc(Cl)cc(F)c2NS(=O)(=O)c2cncc(S(C)(=O)=O)c2)cc1)C(=O)O` [Example 28, 2-[(5′-Chloro-3′-fluoro-2′-{[5-(methanesulfonyl)pyridine-3-sulfonyl]amino}[1,1′-biphenyl]-4-yl)oxy]-2-methylpropanoic acid] gave an IC50 of 2.6 nM. This IC50 is about 8.7-fold higher than that of the compound before. Same read-out and setting: the figure for `COc1cncc(S(=O)(=O)Nc2c(Cl)cc(Cl)cc2-c2ccc(S(C)(=O)=O)c(F)c2)c1` [Example 21, N-[3,5-Dichloro-3′-fluoro-4′-(methanesulfonyl)[1,1′-biphenyl]-2-yl]-5-methoxypyridine-3-sulfonamide] is 1.2 nM; for `Cc1cncc(S(=O)(=O)Nc2c(F)cc(Cl)cc2-c2ccc(CC(=O)O)cc2)c1C` [Example 12, {5′-Chloro-2′-[(4,5-dimethylpyridine-3-sulfonyl)amino]-3′-fluoro[1,1′-biphenyl]-4-yl}acetic acid] it is 0.1 nM; for `CCC(C(=O)O)c1ccc(-c2cc(Cl)cc(F)c2NS(=O)(=O)c2cncc(C)c2)cc1` (stereo not shown) [Example 33, 2-{5′-Chloro-3′-fluoro-2′-[(5-methylpyridine-3-sulfonyl)amino][1,1′-biphenyl]-4-yl}butanoic acid] it is 0.14 nM. Same read-out and setting: the figure for `COc1cncc(S(=O)(=O)Nc2c(Cl)cc(Cl)cc2-c2ccc(OC(C)C(=O)O)cc2)c1` (stereo not shown) [Example 19, 2-({3′,5′-Dichloro-2′-[(5-methoxypyridine-3-sulfonyl)amino][1,1′-biphenyl]-4-yl}oxy)propanoic acid] is 0.49 nM; for `CC(C)(Oc1ccc(-c2cc(Cl)cc(Cl)c2NS(=O)(=O)c2cccnc2)cc1)C(=O)O` [Example 14, 2-({3′,5′-Dichloro-2′-[(pyridine-3-sulfonyl)amino][1,1′-biphenyl]-4-yl}oxy)-2-methylpropanoic acid] it is 2.6 nM. Regarding `O=C(O)COc1ccc(-c2cc(Cl)cc(Cl)c2NS(=O)(=O)c2cccnc2)cc1` [Example 1, ({3′,5′-Dichloro-2′-[(pyridine-3-sulfonyl)amino][1,1′-biphenyl]-4-yl}oxy)acetic acid], the IC50 came out at 5.5 nM. Still for that read-out and setting: the figure for `CCc1ccncc1S(=O)(=O)Nc1c(F)cc(Cl)cc1-c1ccc(OC(C)(C)C(=O)O)cc1` [Example 24, 2-({5′-Chloro-2′-[(4-ethylpyridine-3-sulfonyl)amino]-3′-fluoro[1,1′-biphenyl]-4-yl}oxy)-2-methylpropanoic acid] is 0.2 nM. Compound `Cc1cncc(S(=O)(=O)Nc2c(F)cc(Cl)cc2-c2ccc(C(C)C(=O)O)cc2)c1` (racemic) [Example 32, 2-{5′-Chloro-3′-fluoro-2′-[(5-methylpyridine-3-sulfonyl)amino][1,1′-biphenyl]-4-yl}propanoic acid] had an IC50 of 0.17 nM. Still for that read-out and setting: the figure for `COc1cncc(S(=O)(=O)Nc2c(F)cc(Cl)cc2-c2ccc(OC(C)(C)C(=O)O)cc2)c1` [Example 18, 2-({5′-Chloro-3′-fluoro-2′-[(5-methoxypyridine-3-sulfonyl)amino][1,1′-biphenyl]-4-yl}oxy)-2-methylpropanoic acid] is 0.23 nM; for `COc1cncc(S(=O)(=O)Nc2c(Cl)cc(Cl)cc2-c2ccc(C(F)(F)C(=O)O)cc2)c1` [Example 20, {3′,5′-Dichloro-2′-[(5-methoxypyridine-3-sulfonyl)amino][1,1′-biphenyl]-4-yl}(difluoro)acetic acid] it is 0.36 nM; for `Cc1cncc(S(=O)(=O)Nc2c(Cl)cc(Cl)cc2-c2ccc(OC(C)(C)C(=O)O)cc2)c1` [Example 2, 2-({3′,5′-Dichloro-2′-[(5-methylpyridine-3-sulfonyl)amino][1,1′-biphenyl]-4-yl}oxy)-2-methylpropanoic acid] it is 0.5 nM. On the same count and under the same terms, the figure for `Cc1cncc(S(=O)(=O)Nc2c(Cl)cc(Cl)cc2-c2ccc(OCC(=O)O)cc2)c1` [Example 15, ({3′,5′-Dichloro-2′-[(5-methylpyridine-3-sulfonyl)amino][1,1′-biphenyl]-4-yl}oxy)acetic acid] is 0.9 nM; for `COc1cncc(S(=O)(=O)Nc2c(Cl)cc(Cl)cc2-c2ccc(CC(=O)O)cc2)c1` [Example 22, {3′,5′-Dichloro-2′-[(5-methoxypyridine-3-sulfonyl)amino][1,1′-biphenyl]-4-yl}acetic acid] it is 0.28 nM; for `O=C(O)COc1ccc(-c2cc(Cl)cc(F)c2NS(=O)(=O)c2cccnc2)cc1` [Example 16, ({5′-Chloro-3′-fluoro-2′-[(pyridine-3-sulfonyl)amino][1,1′-biphenyl]-4-yl}oxy)acetic acid] it is 2.4 nM.

For `CC(Oc1ccc(-c2cc(Cl)cc(Cl)c2NS(=O)(=O)c2cccnc2)cc1)C(=O)O` (stereo not shown) [Example 13, 2-({3′,5′-Dichloro-2′-[(pyridine-3-sulfonyl)amino][1,1′-biphenyl]-4-yl}oxy)propanoic acid], the IC50 turned out to be 3.5 nM.
